Measured values as given in patent US20260232827A1, “ANTIBODY-DRUG CONJUGATES TARGETING NAPI2B AND METHODS OF USE” (Zymeworks BC Inc., priority 2023, published 2026).

What was measured:
Assay in all cases: Binding region mapping, flow cytometry on transfected HEK293-6e cells
Conditions in all cases: 24 hours at 4° C.
[1] = tested on: Construct 3 (chimeric human NaPi2b, region 304-321)
Source text: (§1) NaPi2b constructs containing deletions in the main extracellular loop of human NaPi2b, as well as chimeric NaPi2b/NaPi2c constructs concerning this main loop, were generated.
(§2) As a complementary strategy, two additional constructs were designed in which the relevant region of the main loop was deleted such as to mimic NaPi2c/NaPi2a main extracellular loop (Constructs 6-7 in Table 52.1). Clones were generated at GenScript Biotech (Piscataway, NJ).
(§3) Constructs were expressed in HEK293-6e cells as follows. Cells were maintained under standard culture conditions (37° C./5% CO2) with shaking at 110 rpm for suspension and cultured in FreeStyle™ 293 Expression Medium (Thermo Fisher Scientific, Waltham, MA) supplemented with 1% fetal bovine serum (Thermo Fisher Scientific, Waltham, MA) and 1× Penicillin-Streptomycin (Thermo Fisher Scientific, Waltham, MA). Cells were transfected with clones expressing the constructs listed in Table 52.1, at 1 μg of DNA per 1 million cells, using 293Fectin™ Transfection Reagent (Thermo Fisher Scientific, Waltham, MA) and Opti-MEM™ I Reduced Serum Medium (Thermo Fisher Scientific, Waltham, MA), and incubated for 24 hours under standard culture conditions (37° C./5% CO2/110 rpm). Following transfection, cells were seeded at 50,000 cells/well in conical-bottom 96-well plates and treated with a serial dilution of test antibody for 24 hours at 4° C. to prevent internalization. Cells were treated with final concentrations of all humanized antibodies of 200, 20, or 2 nM. Cells were treated with final concentrations of the reference anti-NaPi2a rabbit antibody of 50, 5, or 0.5 nM. […] Following incubation and washing, fluorescence was detected by flow cytometry on a BD LSRFortessa™ Cell Analyzer (BD Biosciences, Franklin Lake, NJ) with 1,000 minimum events collected per well. […] Background-subtracted AF647 Mean Fluorescence Intensity (MFI) values were calculated by subtracting the average MFI of three technical replicates of unstained (no primary antibody) cells.

[2] = target: T1, Construct 6 (human NaPi2b deletion, region 317-333) (Homo sapiens, UniProt O95436, DEL317-333)
T1 construct: host or cells: HEK293-6e
T1 sequence (O95436 with tags, fused parts or gaps DEL317-333): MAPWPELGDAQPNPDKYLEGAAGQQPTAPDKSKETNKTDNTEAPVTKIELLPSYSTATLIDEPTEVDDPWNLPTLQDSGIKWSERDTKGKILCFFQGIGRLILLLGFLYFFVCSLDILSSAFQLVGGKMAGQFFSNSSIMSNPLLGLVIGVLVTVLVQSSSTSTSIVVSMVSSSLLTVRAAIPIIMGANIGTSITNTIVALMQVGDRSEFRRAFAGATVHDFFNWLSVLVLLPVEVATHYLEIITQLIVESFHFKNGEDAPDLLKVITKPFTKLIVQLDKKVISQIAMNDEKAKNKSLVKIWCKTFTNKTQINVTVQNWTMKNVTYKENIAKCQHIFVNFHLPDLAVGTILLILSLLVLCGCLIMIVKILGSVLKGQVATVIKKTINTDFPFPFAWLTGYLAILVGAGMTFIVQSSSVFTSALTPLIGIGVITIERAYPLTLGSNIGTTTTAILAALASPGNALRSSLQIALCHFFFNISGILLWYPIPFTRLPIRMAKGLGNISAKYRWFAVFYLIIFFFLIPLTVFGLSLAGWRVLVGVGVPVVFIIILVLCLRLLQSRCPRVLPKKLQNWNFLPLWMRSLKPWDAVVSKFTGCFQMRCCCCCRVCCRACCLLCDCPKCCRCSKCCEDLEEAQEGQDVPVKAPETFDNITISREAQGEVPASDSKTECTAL
Source text: as §1, §2, §3

[3] = tested on: Construct 1 (chimeric human NaPi2b, region 239-259)
Source text: as §1, §2, §3

[4] = target: T2, Construct 7 (human NaPi2b deletion, region 317-326) (Homo sapiens, UniProt O95436, DEL317-326)
T2 construct: host or cells: HEK293-6e
T2 sequence (O95436 with tags, fused parts or gaps DEL317-326): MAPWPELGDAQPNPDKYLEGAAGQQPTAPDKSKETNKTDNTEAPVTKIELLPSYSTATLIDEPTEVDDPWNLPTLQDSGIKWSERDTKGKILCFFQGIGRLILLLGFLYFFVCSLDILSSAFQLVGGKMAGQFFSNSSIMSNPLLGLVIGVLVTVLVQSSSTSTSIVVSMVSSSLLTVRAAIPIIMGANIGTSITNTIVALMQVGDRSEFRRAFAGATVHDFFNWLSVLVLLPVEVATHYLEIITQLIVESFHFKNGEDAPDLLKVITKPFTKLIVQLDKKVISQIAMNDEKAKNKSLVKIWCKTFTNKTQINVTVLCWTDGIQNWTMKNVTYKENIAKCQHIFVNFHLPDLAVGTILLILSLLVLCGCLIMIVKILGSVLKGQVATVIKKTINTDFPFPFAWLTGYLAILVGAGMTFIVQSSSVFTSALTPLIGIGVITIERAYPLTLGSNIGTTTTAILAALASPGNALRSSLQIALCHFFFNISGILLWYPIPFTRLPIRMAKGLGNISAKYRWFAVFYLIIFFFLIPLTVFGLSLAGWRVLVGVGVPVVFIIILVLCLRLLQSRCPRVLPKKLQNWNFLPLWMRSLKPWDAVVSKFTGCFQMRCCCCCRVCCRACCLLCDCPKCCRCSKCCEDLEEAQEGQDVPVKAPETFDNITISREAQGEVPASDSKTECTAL
Source text: as §1, §2, §3

[5] = tested on: Construct 4 (chimeric human NaPi2b, region 341-358)
Source text: as §1, §2, §3

[6] = tested on: Construct 2 (chimeric human NaPi2b, region 280-301)
Source text: as §1, §2, §3

Substance: palivizumab [palivizumab (v21995)]
- Background-Subtracted AF647 Mean Fluorescence Intensity ([1]; antibody 2.0 nM): 19
- Background-Subtracted AF647 Mean Fluorescence Intensity ([1]; antibody 20.0 nM): 39
- Background-Subtracted AF647 Mean Fluorescence Intensity ([1]; antibody 200.0 nM): -5
- Background-Subtracted AF647 Mean Fluorescence Intensity ([2]; antibody 2.0 nM): 11
- Background-Subtracted AF647 Mean Fluorescence Intensity ([2]; antibody 20.0 nM): 1
- Background-Subtracted AF647 Mean Fluorescence Intensity ([2]; antibody 200.0 nM): 2
- Background-Subtracted AF647 Mean Fluorescence Intensity ([3]; antibody 2.0 nM): -30
- Background-Subtracted AF647 Mean Fluorescence Intensity ([3]; antibody 20.0 nM): -27
- Background-Subtracted AF647 Mean Fluorescence Intensity ([3]; antibody 200.0 nM): 12
- Background-Subtracted AF647 Mean Fluorescence Intensity ([4]; antibody 2.0 nM): -34
- Background-Subtracted AF647 Mean Fluorescence Intensity ([4]; antibody 20.0 nM): -85
- Background-Subtracted AF647 Mean Fluorescence Intensity ([4]; antibody 200.0 nM): -97
- Background-Subtracted AF647 Mean Fluorescence Intensity ([5]; antibody 2.0 nM): 1
- Background-Subtracted AF647 Mean Fluorescence Intensity ([5]; antibody 20.0 nM): 22
- Background-Subtracted AF647 Mean Fluorescence Intensity ([5]; antibody 200.0 nM): 12
- Background-Subtracted AF647 Mean Fluorescence Intensity ([6]; antibody 2.0 nM): -69
- Background-Subtracted AF647 Mean Fluorescence Intensity ([6]; antibody 20.0 nM): -64
- Background-Subtracted AF647 Mean Fluorescence Intensity ([6]; antibody 200.0 nM): -30
